Series [1] in a line: SUPPLEMENTARY: Lipophilicity (log D) Determination by high-throughput shake-flask. Conditions: octanol/water. In kind it is physicochemical.
Series [2] can be described thus: SUPPLEMENTARY: Lyophilisation Solubility Assay (LYSA). Conditions: read-out: Kinetic_solubility. It is filed as physicochemical.
In series [3] the target is T1, Carnitine O-palmitoyltransferase 2, mitochondrial (Rattus norvegicus, UniProt P18886).
T1 sequence (P18886 whole entry): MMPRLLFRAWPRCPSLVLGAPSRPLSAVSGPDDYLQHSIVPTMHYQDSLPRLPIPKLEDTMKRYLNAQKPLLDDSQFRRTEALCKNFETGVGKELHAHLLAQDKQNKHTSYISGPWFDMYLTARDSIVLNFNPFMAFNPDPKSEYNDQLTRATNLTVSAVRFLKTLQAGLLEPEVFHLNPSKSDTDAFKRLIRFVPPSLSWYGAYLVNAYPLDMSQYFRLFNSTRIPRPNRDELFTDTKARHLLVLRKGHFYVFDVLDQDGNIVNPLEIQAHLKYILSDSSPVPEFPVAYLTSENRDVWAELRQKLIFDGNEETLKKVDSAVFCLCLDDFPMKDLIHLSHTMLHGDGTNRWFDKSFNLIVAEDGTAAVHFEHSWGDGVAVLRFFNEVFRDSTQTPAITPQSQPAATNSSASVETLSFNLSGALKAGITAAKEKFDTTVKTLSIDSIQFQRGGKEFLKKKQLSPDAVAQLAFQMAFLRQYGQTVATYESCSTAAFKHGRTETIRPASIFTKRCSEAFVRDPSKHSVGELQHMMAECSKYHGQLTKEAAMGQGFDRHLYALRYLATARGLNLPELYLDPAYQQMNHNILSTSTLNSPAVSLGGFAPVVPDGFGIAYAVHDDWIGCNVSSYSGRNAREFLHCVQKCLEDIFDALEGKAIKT
The series can be described thus: (§1) SUPPLEMENTARY: Inhibition of Carnitine palmitoyltransferase 2.

Series [4] concerns the target T2, Carnitine O-palmitoyltransferase 2, mitochondrial (Homo sapiens, UniProt P23786).
T2 sequence (P23786 whole entry): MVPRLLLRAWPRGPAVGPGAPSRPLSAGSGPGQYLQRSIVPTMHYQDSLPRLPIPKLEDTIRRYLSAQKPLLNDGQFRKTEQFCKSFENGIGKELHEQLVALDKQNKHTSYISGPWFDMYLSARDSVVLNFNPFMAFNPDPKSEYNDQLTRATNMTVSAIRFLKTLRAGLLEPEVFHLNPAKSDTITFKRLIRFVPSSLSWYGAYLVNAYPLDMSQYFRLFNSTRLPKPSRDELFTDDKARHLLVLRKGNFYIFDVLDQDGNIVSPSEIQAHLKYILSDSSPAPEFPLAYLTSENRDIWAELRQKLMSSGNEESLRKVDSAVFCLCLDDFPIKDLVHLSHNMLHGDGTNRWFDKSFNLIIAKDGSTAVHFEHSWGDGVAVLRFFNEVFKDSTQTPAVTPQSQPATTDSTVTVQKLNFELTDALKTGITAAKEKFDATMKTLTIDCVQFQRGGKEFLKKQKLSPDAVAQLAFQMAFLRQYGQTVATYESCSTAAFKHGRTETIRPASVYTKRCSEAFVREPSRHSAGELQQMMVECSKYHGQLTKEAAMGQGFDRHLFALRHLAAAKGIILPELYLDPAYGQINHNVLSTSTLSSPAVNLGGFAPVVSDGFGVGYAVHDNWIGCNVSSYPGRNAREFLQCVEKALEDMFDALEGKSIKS
Described as §1.

Series [5] can be described thus: SUPPLEMENTARY: PAMPA permeability assay. It is filed as physicochemical. Particulars: read-out: Permeability. For orientation: In PAMPA a lipid-coated filter parts donor from acceptor wells.
Series [6] concerns the target T3, Carnitine O-palmitoyltransferase 1, muscle isoform (Homo sapiens, UniProt Q92523).
T3 sequence (Q92523 whole entry): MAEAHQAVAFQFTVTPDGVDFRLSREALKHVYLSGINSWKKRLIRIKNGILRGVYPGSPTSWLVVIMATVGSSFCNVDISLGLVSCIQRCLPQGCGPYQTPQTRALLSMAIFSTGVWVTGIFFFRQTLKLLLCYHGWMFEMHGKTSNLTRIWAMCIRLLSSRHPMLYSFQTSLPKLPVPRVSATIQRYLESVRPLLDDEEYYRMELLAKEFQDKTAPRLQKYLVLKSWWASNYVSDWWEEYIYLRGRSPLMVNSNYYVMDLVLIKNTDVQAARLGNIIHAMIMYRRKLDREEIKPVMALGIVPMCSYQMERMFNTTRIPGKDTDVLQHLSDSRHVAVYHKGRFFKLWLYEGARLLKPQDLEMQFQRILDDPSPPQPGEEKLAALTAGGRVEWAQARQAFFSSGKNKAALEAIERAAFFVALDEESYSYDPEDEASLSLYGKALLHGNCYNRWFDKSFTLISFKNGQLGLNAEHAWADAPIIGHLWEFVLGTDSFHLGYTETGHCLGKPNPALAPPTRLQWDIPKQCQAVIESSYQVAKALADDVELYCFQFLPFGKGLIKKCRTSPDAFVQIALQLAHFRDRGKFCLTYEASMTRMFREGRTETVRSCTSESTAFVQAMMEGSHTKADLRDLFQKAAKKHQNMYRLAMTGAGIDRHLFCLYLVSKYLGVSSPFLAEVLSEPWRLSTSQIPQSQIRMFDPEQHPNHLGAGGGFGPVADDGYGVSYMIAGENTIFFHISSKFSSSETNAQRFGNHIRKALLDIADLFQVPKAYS
The series is described as follows: SUPPLEMENTARY: Inhibition of Carnitine palmitoyltransferase 1, muscle isoform. On the set-up: species or system Muscle tissue.

Series [7] deals with T4, Carnitine O-palmitoyltransferase 1, liver isoform (Homo sapiens, UniProt P50416).
T4 sequence (P50416 whole entry): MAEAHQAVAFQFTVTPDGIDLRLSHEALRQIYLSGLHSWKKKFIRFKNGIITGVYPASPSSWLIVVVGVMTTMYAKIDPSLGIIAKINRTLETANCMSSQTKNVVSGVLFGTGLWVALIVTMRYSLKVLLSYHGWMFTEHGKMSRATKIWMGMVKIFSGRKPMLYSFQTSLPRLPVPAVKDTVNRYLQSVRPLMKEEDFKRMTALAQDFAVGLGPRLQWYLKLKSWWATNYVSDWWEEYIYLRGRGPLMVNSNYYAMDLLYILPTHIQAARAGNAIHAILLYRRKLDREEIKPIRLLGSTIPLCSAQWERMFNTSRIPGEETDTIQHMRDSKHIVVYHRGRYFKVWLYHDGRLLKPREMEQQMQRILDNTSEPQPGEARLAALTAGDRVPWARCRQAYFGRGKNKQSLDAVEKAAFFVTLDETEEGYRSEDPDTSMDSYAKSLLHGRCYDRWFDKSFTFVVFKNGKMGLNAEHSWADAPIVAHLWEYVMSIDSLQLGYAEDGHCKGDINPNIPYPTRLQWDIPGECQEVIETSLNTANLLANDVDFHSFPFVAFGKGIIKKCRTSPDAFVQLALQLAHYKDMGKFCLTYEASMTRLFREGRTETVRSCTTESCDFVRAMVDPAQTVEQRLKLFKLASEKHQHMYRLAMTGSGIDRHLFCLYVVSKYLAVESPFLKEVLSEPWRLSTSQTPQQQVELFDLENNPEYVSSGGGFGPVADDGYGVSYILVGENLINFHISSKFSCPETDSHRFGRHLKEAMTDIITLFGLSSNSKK
The series can be described thus: (§2) SUPPLEMENTARY: Inhibition of Carnitine palmitoyltransferase 1, liver isoform.

Series [8] has as its target T5, Carnitine O-palmitoyltransferase 1, liver isoform (Rattus norvegicus, UniProt P32198).
T5 sequence (P32198 whole entry): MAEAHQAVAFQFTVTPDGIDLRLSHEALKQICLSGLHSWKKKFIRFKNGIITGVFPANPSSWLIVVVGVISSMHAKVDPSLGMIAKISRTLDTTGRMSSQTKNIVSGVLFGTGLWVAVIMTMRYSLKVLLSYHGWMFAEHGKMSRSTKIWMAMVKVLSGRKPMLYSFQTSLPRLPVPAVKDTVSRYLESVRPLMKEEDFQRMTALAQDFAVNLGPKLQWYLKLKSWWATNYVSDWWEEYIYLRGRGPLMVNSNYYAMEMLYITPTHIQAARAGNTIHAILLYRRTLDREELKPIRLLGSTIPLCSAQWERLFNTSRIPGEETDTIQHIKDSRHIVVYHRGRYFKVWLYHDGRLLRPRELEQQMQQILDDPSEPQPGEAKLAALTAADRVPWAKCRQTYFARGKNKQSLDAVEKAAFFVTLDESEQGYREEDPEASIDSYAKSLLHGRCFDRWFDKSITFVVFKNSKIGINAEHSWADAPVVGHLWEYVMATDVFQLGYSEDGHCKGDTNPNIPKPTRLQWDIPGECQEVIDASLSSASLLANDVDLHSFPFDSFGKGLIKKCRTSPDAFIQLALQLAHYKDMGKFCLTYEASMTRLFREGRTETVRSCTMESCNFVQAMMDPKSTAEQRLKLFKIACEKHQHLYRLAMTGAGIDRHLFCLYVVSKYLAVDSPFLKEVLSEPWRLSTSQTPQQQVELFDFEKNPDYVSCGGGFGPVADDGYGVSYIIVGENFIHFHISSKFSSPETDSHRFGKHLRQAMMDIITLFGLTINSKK
The series is described as §2.

Converted amounts (≈) assume the structure as drawn.

As a reminder, the logD is the decadic logarithm of the distribution of all forms, ionised or not, between an organic phase and buffer at a given pH. As usually defined, the IC50 is the concentration needed to halve the response being measured. Read a high IC50 as a need for much substance. In series [1], `NC(=O)c1n[nH]c2cc(-c3noc([C@H]4CCCCN4C(=O)COc4ccccc4)n3)ccc12` returned a logD of 3.04. Besides, in series [2], the solubility kinetic was 5 µg/mL (≈ 11.2 µM). Further, the IC50 is more than 100 µM in series [3]; more than 100 µM in series [4]; more than 100 µM in series [6]; 0.0635 µM in series [7]; 1.07 µM in series [8]. For the same compound, the Papp in series [5] came out at 2.35 ×10⁻⁶ cm/s.

`O=C(O)c1cncc(-c2noc([C@H]3CCCCN3C(=O)COc3ccccc3)n2)c1` displayed a logD in series [1] of -1.07. In series [2], the solubility kinetic was 397 µg/mL (≈ 972 µM). The IC50 in series [3] is more than 100 µM; in series [4] it was 96.3 µM; in series [6] it was more than 100 µM; in series [7] it was 0.226 µM; in series [8], 4.51 µM. Moreover, the Papp in series [5] stood at 0.07 ×10⁻⁶ cm/s.

On to `CCOC(=O)c1cncc(-c2noc([C@H]3CCCCN3C(=O)COc3ccccc3)n2)c1`, for which the logD in series [1] came to 3.38. The solubility kinetic in series [2] came out at 9 µg/mL (≈ 20.6 µM). Besides, the IC50 in series [3] was more than 100 µM; in series [4], 24.3 µM; in series [6], more than 100 µM; in series [7], 0.0786 µM; in series [8], 0.399 µM. In series [5], the Papp came to 1.56 ×10⁻⁶ cm/s.

Consider `O=C(O)c1ccc(NC(=O)c2ccc(NS(=O)(=O)c3cc(Cl)cc(Cl)c3)s2)cc1`, for which, in series [1], the logD is -1.09. The solubility kinetic in series [2] stood at 378 µg/mL (≈ 802 µM). Besides, the IC50 in series [3] was more than 100 µM; in series [4] it was more than 100 µM; in series [6], 4.38 µM; in series [7], 0.153 µM; in series [8] it was 0.261 µM. The Papp in series [5] worked out at 0.01 ×10⁻⁶ cm/s.

In the case of `O=C(COc1ccccc1)N1CCCC[C@@H]1c1nc(-c2ccc3[nH]ncc3c2)n[nH]1`, in series [1], the logD came out at 2.71. Moreover, the solubility kinetic in series [2] was 53 µg/mL (≈ 132 µM). Further, the IC50 in series [3] is 61.5 µM; in series [4], 13.9 µM; in series [6] it was more than 100 µM; in series [7], 0.0874 µM; in series [8] it was 0.683 µM. Also, in series [5], the Papp worked out at 1.64 ×10⁻⁶ cm/s.

The compound `NC(=O)c1cncc(-c2noc([C@H]3CCCCN3C(=O)COc3ccccc3)n2)c1` had a logD in series [1] of 1.88. In series [2], the solubility kinetic worked out at 141 µg/mL (≈ 346 µM). For the same compound, the IC50 in series [3] is 86.3 µM; in series [4], 24.3 µM; in series [6], more than 100 µM; in series [7] it was 0.113 µM; in series [8], 0.41 µM. For the same compound, the Papp in series [5] was determined as 3.83 ×10⁻⁶ cm/s.

Take `CCOC(=O)c1cn2ccc(-c3noc([C@H]4CCCCN4C(=O)COc4ccccc4)n3)cc2n1`: in series [1], the logD was 2.92. Besides, the solubility kinetic in series [2] was 22 µg/mL (≈ 46.3 µM). Moreover, the IC50 is more than 100 µM in series [3]; more than 100 µM in series [4]; more than 100 µM in series [6]; 0.0681 µM in series [7]; 0.459 µM in series [8]. In series [5], the Papp was found to be 1.99 ×10⁻⁶ cm/s.

Turning to `NC(=O)c1cn2ccc(-c3noc([C@H]4CCCCN4C(=O)COc4ccccc4)n3)cc2n1`, in series [1], the logD turned out to be 2.79. The solubility kinetic in series [2] was determined as 10 µg/mL (≈ 22.4 µM). In addition, the IC50 in series [3] was 18.3 µM; in series [4], 12.1 µM; in series [6], more than 100 µM; in series [7] it was 0.0964 µM; in series [8], 0.663 µM. The Papp in series [5] is 5.55 ×10⁻⁶ cm/s.

In the case of `O=C(NCCO)c1cccc(-c2n[nH]c([C@H]3CCCCN3C(=O)COc3ccccc3)n2)c1`, the logD in series [1] stood at 1.98. The solubility kinetic in series [2] came to 138 µg/mL (≈ 307 µM). Further, the IC50 in series [3] was 70 µM; in series [4], 30.3 µM; in series [6] it was more than 100 µM; in series [7] it was 0.242 µM; in series [8] it was 0.713 µM. In series [5], the Papp came out at 0.51 ×10⁻⁶ cm/s.

Take `COC[C@@H]1CCN(NC(=O)c2cccc(-c3n[nH]c([C@H]4CCCCN4C(=O)COc4ccccc4)n3)c2)C1`: the logD in series [1] was 2.45. Further, the solubility kinetic in series [2] is 229 µg/mL (≈ 442 µM). Moreover, the IC50 is 73.6 µM in series [3]; 74.3 µM in series [4]; more than 100 µM in series [6]; 0.159 µM in series [7]; 1.3 µM in series [8]. Also, the Papp in series [5] amounted to 3.31 ×10⁻⁶ cm/s.
